Experimental data reported in patent US6071709A, “Nerve growth factor/receptor complex” (The United States of America as represented by the …, priority 1992, dated 2000).

Legend:
trk transcripts = experiment: Northern transfer analysis of trk transcripts in PC12 cells with or without NGF; assay type: cell-based, rat; settings: 50 ng/ml NGF, 48 hr
Procedure: RNA preparation and Northern transfer analysis was performed as described (Martin-Zanca et al., (1990a)). Cells were treated with 50 ng/ml NGF(+) (Boehringer Mannheim Biochemicals) and were harvested 48 hr later after differentiation had occurred. 20 μg of total RNA was loaded per lane, and the filter was hybridized with a trk (Martin-Zanca et al., (1990)) or trkB (Klein et al., (1990a)) specific probe.
The trk gene is a member of a gene family of TK receptors that includes the related gene trkb. To determine if trk is transcribed in PC12 cells, the expression of trk transcripts was assayed by Northern transfer analysis with a full-length trk cDNA probe (R. Klein et al., (1990a)). PC12 cells contained trk transcripts (FIG. 7). The level of trk transcripts was not affected by the addition of NGF. To determine whether additional trk-related genes were transcribed in PC12 cells, mRNA was hybridized at low stringency with the highly conserved trk TK domain. trk transcripts have been found in LA-N-5 cells, Sy5y cells and DRG from 13.5 day or 14.5 day embryonic mice.

gp140trk = experiment: trk tyrosine phosphorylation in explanted embryonic dorsal root ganglia treated with NGF; assay type: cell-based, mouse; design: dose or concentration left out as unconfirmed
Description: FIGS. 4A-B show NGF-dependent tyrosine phosphorylation of gp140trk in the human neuroblastoma cell lines LA-N-5, SY5Y, and dorsal root ganglia from mouse embryos. FIG. 4A, gp140trk was immunoprecipitated from untreated (-) or NGF treated (+) LA-N-5 cells (K. H. Sonnenfeld and D. N. Ishii, J. Neurosci. Res. 8:375-391 (1982)), SY5Y cells (K. H. Sonnenfeld and D. N. Ishii, (1982)), NR18 cells (M. A. Bothwell et al., Cell 21:857-866 (1980)), or PC12 cells. Immunoprecipitates were probed with P-tyr antibodies. The differences in trk protein mobilities are due to differences in glycosylation. FIG. 4B, Tyrosine phosphorylation of gp140trk in DRGs from 13.5 day or 14.5 day embryonic mice. […] Tyrosine phosphorylated gp140trk from NGF-treated (+) PC12 cells or untreated (-) PC12 cells is shown for comparison. Samples were normalized for cell protein. Molecular weight markers in kDa are indicated.
Cell lines were treated with 100 ng/ml NGF for 5 min and gp140trk immunoprecipitated as in FIG. 1. DRGs were prepared by dissection for 13.5 or 14.5 day mouse embryos. 100 DRG's were treated with NGF, washed, and subjected to Dounce homogenization in 1% NP40 lysis buffer. Lysates were immunoprecipitated with trk antibody and the trk proteins were analyzed by antiphosphotyrosine immunoblots. […]

trk = experiment: Growth factor stimulation of trk transfected 3T3 cells (pJM7-23), COS cell supernatants, Ptyr blot; assay type: cell-based; settings: trk-expressing 3T3 cells (pJM7-23), 100 μl/ml NGF-COS cell supernatant, 10 minutes at 37° C.
Procedure: To study growth factor stimulation in cells transfected with trkB, NIH 3T3 trk transfected 3T3 (pJM7-23), trkB transfected 3T3 cells (pJM8-3) and non-transfected 3T3 cells (control cells) were exposed to media or media containing 100 μl/ml of NGF-COS cell supernatant, 100 μl/ml NT-3 COS cell supernatant, 5 μl/ml human platelet extract, or 50 μl/ml human platelet extract, for 10 minutes at 37° C. The plates were rinsed, lysed, and the trk or trkB was immunoprecipitated with rabbit antisera 443 and protein A Sepharose in the presence or absence of 10 μg/ml blocking peptide. After washing, the beads were denatured in sample buffer, the proteins were separated on a 7.5% gel and transferred to nitrocellulose. The blots were blocked with 2% BSA and probed with an antiphosphotyrosine monoclonal antibody (4G10). After binding of alkaline phosphate-conjugatedrabbit-anti-mouse antibody, the blots were washed and developed with BCIP and NBT.

p140^prototrk = p140^prototrk (Rattus norvegicus, UniProt P35739); experiment: trk tyrosine phosphorylation in rtrk-3T3 cells, suramin treatment followed by NGF (in vivo and immune complex kinase assays); assay type: cell-based; settings: suramin treated rtrk-3T3 cells, NGF (500 ng/ml) added for 10 min
p140^prototrk, sequence (P35739 33-799): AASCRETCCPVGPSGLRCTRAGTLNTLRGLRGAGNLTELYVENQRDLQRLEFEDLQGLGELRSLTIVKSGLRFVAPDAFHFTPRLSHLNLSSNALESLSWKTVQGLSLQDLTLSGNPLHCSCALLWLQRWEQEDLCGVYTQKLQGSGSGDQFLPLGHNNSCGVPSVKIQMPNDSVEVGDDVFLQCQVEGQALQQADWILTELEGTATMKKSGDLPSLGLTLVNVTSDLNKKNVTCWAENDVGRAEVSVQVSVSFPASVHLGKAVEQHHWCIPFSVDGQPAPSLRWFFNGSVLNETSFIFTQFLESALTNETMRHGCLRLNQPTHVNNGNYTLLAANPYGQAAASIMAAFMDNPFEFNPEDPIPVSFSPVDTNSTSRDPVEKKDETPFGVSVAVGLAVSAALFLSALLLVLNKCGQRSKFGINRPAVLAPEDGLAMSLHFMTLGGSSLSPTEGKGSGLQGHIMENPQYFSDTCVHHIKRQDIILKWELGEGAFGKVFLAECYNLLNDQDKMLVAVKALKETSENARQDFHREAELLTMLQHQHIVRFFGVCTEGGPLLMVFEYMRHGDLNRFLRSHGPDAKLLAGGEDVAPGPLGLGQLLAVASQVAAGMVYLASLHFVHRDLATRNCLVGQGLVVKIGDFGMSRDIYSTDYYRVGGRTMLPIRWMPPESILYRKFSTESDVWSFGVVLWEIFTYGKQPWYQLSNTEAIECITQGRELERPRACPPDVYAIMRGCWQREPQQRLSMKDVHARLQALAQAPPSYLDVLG
Procedure: Cells were treated with suramin (lanes 2 and 5) or with 500 ng/ml NGF for 10 min following suramin treatment.
rtrk 3T3 cells were generated by CaPO4 mediated transfection of a rat trk cDNA into NIH-3T3 cells. […] PC12 cells or rtrk 3T3 cells (2×10^7) were labeled with ^32 P orthophosphate (1 mCi.ml in 4 ml) for 4 hr at 37° C. […] For c, rtrk 3T3 cells were treated with 1 mM suramin in Dulbecco's Modified Eagle Medium (DMEM) for 2 h or mock treated. Following extensive washing of the cells with DMEM, NGF was added for the time indicated. Cells were lysed and the lysates were immunoprecipitated with trk antibody. Immunoprecipitates were either subjected to immunoblot analysis with the phosphotyrosine (Ptyr) monoclonal antibody 4G10 (Lanes 1-3), or were analyzed in kinase assays. […] Similar amounts of trk protein were present in each lane.

“NGF: neurotrophic polypeptide factor, nerve growth factor; ligand of trk proto-oncogene receptor” was tested, and the “level of trk transcripts” value (trk transcripts) was “not affected”, the “phosphorylation of trk protein in 13.5 day DRG” value (gp140trk; E13.5 mouse embryo DRG) was “not in two independent preparations” and the “phosphorylation of trk protein in 14.5 day DRG” value (gp140trk; E14.5 mouse embryo DRG) was “detectable”. For the same substance, the “stimulation of trk tyrosine phosphorylation” value (trk) was “stimulated” and the “stimulation of tyrosine phosphorylation of gp140^prototrk in vivo and in vitro” value (p140^prototrk) was “at least 10 fold”.
